Reference: patent US8389539B2, “Azacyclic derivatives” (Hoffman-La Roche Inc., priority 2009, dated 2013)

These compounds were tested against T1, human HSL (Homo sapiens, UniProt Q05469) (assay: Human Hormone-Sensitive Lipase (HSL) enzyme inhibition assay (colorimetric, DMPT substrate)). Details: human full length HSL-His6, 2,3-dimercapto-1-propanol tributyrate substrate, 37° C. 20 minutes, absorbance at 405 nm; read-out: HSL hum IC50.
T1 construct: overlapping PCR to generate a full length human HSL ORF with a 3′-His6 tag; His6 (C); made in house; host or cells: High 5 insect cells (baculovirus, pFast-BAC)
T1 sequence (Q05469 1-1076): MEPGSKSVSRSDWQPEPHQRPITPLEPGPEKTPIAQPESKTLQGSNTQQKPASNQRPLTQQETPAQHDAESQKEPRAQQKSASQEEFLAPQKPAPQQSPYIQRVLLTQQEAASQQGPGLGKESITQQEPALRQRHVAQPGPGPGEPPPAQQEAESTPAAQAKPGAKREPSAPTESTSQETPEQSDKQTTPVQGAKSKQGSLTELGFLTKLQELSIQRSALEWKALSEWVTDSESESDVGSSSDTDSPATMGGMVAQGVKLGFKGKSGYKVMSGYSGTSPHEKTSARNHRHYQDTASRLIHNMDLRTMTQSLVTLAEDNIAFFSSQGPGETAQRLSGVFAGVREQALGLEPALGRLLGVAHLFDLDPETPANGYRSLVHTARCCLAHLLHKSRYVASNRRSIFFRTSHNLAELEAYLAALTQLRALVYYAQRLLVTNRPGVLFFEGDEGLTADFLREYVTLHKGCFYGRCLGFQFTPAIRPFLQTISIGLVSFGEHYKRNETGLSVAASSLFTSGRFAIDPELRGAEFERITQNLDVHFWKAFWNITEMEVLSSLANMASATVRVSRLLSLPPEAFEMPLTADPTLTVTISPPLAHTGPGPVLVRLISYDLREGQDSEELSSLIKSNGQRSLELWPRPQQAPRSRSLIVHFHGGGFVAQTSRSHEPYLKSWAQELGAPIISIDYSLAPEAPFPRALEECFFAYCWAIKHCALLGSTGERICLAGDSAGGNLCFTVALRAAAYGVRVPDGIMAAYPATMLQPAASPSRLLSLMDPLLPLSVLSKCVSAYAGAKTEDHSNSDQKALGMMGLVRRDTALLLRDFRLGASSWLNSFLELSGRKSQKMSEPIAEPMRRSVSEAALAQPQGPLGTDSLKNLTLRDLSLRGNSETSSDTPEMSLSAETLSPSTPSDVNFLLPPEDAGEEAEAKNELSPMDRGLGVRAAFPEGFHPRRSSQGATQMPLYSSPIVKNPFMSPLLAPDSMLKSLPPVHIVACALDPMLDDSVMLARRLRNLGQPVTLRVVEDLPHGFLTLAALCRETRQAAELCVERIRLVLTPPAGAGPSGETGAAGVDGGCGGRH
Format: biochemical
Method: 1) Cloning: cDNA was prepared from commercial human brain polyA+ RNA and used as a template in overlapping PCR to generate a full length human HSL ORF with a 3′-His6 tag. This full length insert was cloned into the pFast-BAC vector and the DNA-sequence of several single clones was verified. DNA from a correct full length clone with the 3′His6 tag was used to transform the E. coli strain DH10BAC. Resulting bacmid DNA was used to generate a titered baculovirus stock for protein generation.
Cells were thawed. […] was done at 3×30 sec., Lubrol PX was added to 0.2% final concentration followed by stirring for 15 min. at 4° C. and centrifugation at 25 k×g, 60 min., 4° C. […] Supernatant was removed, the resin washed in the centrifuge vessel using 5 volumes of Base Buffer containing 0.2% Lubrol PX. Centrifugation was done again, then the supernatant discarded. The resin was poured onto a 0.8 μm membrane in a disposable filter unit (Nalge 450-0080), and washed with 5 volumes of Base Buffer containing 0.2% Lubrol PX. It was then washed with 30 volumes of Base Buffer containing 60 mM imidazole pH 7.5 at 4° C. The protein was eluated with 5 volumes of 25 mM Tris-Cl, 300 mM NaCl, 200 mM imidazole, 10 mM 2-mercaptoethanol, pH 7.5 at 4° C. by tumbling resin with buffer end-over-end, 30 min., 4° C. The resin was captured on a 0.2 μm membrane disposable filter unit (Millipore SCGP U02 RE) and the eluate collected in the reservoir. The eluate was concentrated using a 30 k MWCO centrifugal filter device (Sartorius Vivascience Vivacell 100, VC1022), to 20 ml. It was then dialyzed overnight at 4° C., two times against 2 L of 10% glycerol, 25 mM Tris-Cl, 300 mM NaCl, 0.2 mM EDTA, 0.2 mM DTT, pH 7.5 at 4° C. The protein was filtered using a 0.22 μm disposable filter unit (Millipore SCGP00525). The protein concentration was calculated from absorbance at 280 nm, using 280=0.67 cm-1 mg-1. […] The protein was stored at −80° C.
Human Hormone-Sensitive Lipase (HSL) Enzyme Inhibition Assay:
HSL enzyme activity was measured by a colorimetric assay using 2,3-dimercapto-1-propanol tributyrate (Aldrich, St. Louis, Mo.) as a substrate. Typically, 1.5 mM 2,3-dimercapto-1-propanol tributyrate (DMPT) in 100 mM MOPS, pH 7.2, 0.2 mg/ml fatty acid-free BSA was prepared by sonication at 4° C. to homogenous suspension. Test compounds (2 mM stock in DMSO) were diluted 3 fold in series in DMSO. Compound solutions were diluted 24 fold in 1.5 mM DMPT containing solution and 18 ul per well was added to 384-well microplates (Corning Costar). Twelve microliters per well of human HSL (15 ug/ml) was added and the reaction mixture was incubated at 37° C. for 20 minutes. Six microliters of 12 mM dithio-bis-(2-nitrobenzoic acid) (DTNB) in DMSO plus 1.2% SDS and 0.6% Triton X-100 were added and the mixture was incubated at room temperature for 15 minutes. Product production was monitored by reading absorbance at 405 nm on an Envision Reader (PerkinElmer Life and Analytical Sciences, Shelton, Conn.).

SMILES | IC50
CC(c1ccccc1)N1CCC2(CCN(c3ccc(C4CC4)cc3)C2=O)CC1 (centres unmarked) [Example 4, 2-(4-Cyclopropyl-phenyl)-8-(1-phenyl-ethyl)-2,8-diaza-spiro[4.5]decan-1-one] | 30 nM
O=C1N(c2ccc(C3CC3)cc2)CCC12CCN(CCc1ccccc1)CC2 [Example 2, 2-(4-Cyclopropyl-phenyl)-8-phenethyl-2,8-diaza-spiro[4.5]decan-1-one] | 70 nM
C[C@H](Oc1ccc(N2CCC3(CCN(CC(O)c4c(F)cccc4Cl)CC3)C2=O)cn1)C(F)(F)F (stereo partly drawn) [Example 55, 8-[2-(2-Chloro-6-fluoro-phenyl)-2-hydroxy-ethyl]-2-[6-((S)-2,2,2-trifluoro-1-methyl-ethoxy)-pyridin-3-yl]-2,8-diaza-spiro[4.5]decan-1-one] | 38 nM
O=C1N(c2ccc(C3CC3)cc2)CCC12CCN(CCCc1ccccc1)CC2 [Example 1, 2-(4-Cyclopropyl-phenyl)-8-(3-phenyl-propyl)-2,8-diaza-spiro[4.5]decan-1-one] | 240 nM
CCN(CC)C(=O)CN1CCC2(CC1)CCN(c1ccc(C3CC3)cc1)C2=O [Example 10, 2-[2-(4-Cyclopropyl-phenyl)-1-oxo-2,8-diaza-spiro[4.5]dec-8-yl]-N,N-diethyl-acetamide] | 380 nM
O=C1N(c2ccc(C3CC3)cc2)CCC12CCN(Cc1ccc(C(F)(F)F)cc1)CC2 [Example 3, 2-(4-Cyclopropyl-phenyl)-8-(4-trifluoromethyl-benzyl)-2,8-diaza-spiro[4.5]decan-1-one] | 360 nM
O=C1N(c2ccc(CC(F)(F)F)cc2)CCC12CCN(CC(O)c1c(F)cccc1Cl)CC2 (centres unmarked) [Example 50, 8-[2-(2-Chloro-6-fluoro-phenyl)-2-hydroxy-ethyl]-2-[4-(2,2,2-trifluoro-ethyl)-phenyl]-2,8-diaza-spiro[4.5]decan-1-one] | 18 nM
O=C1N(c2ccc(C3CC3)cc2)CCC12CCN(CC(O)c1ccc(Cl)cc1)CC2 (centres unmarked) [Example 24, 8-[2-(4-Chloro-phenyl)-2-hydroxy-ethyl]-2-(4-cyclopropyl-phenyl)-2,8-diaza-spiro[4.5]decan-1-one] | 80 nM
O=C1N(c2ccc(OC(F)(F)F)cc2)CCC12CCN(Cc1ccccc1)CC2 [Example 8, 8-Benzyl-2-(4-trifluoromethoxy-phenyl)-2,8-diaza-spiro[4.5]decan-1-one] | 40 nM
C[C@H](Oc1ccc(N2CCC3(CCN(CC(O)c4ccc(Cl)cc4Cl)CC3)C2=O)cn1)C(F)(F)F (stereo partly drawn) [Example 53, 8-[2-(2,4-Dichloro-phenyl)-2-hydroxy-ethyl]-2-[6-((S)-2,2,2-trifluoro-1-methyl-ethoxy)-pyridin-3-yl]-2,8-diaza-spiro[4.5]decan-1-one] | 43 nM
CN(C(=O)CN1CCC2(CC1)CCN(c1ccc(C3CC3)cc1)C2=O)C1CCCCC1 [Example 16, N-Cyclohexyl-2-[2-(4-cyclopropyl-phenyl)-1-oxo-2,8-diaza-spiro[4.5]dec-8-yl]-N-methyl-acetamide] | 60 nM
CN(Cc1ccccc1)C(=O)CN1CCC2(CC1)CCN(c1ccc(C3CC3)cc1)C2=O [Example 15, N-Benzyl-2-[2-(4-cyclopropyl-phenyl)-1-oxo-2,8-diaza-spiro[4.5]dec-8-yl]-N-methyl-acetamide] | 80 nM
CCCCNC(=O)[C@@H](CCCC)N1CCC2(CCN(c3ccc(C4CC4)cc3)C2=O)CC1 [Example 42, (R)-2-[2-(4-Cyclopropyl-phenyl)-1-oxo-2,8-diaza-spiro[4.5]dec-8-yl]-hexanoic acid butylamide] | 11 nM
O=C1N(c2ccc(OCC(F)(F)F)cc2)CCC12CCN(CC(O)c1c(F)cccc1Cl)CC2 (centres unmarked) [Example 47, 8-[2-(2-Chloro-6-fluoro-phenyl)-2-hydroxy-ethyl]-2-[4-(2,2,2-trifluoro-ethoxy)-phenyl]-2,8-diaza-spiro[4.5]decan-1-one] | 35 nM
CN(C(=O)CCN1CCC2(CC1)CCN(c1ccc(C3CC3)cc1)C2=O)C1CCCCC1 [Example 22, N-Cyclohexyl-3-[2-(4-cyclopropyl-phenyl)-1-oxo-2,8-diaza-spiro[4.5]dec-8-yl]-N-methyl-propionamide] | 320 nM
O=C1N(c2ccc(C3CC3)cc2)CCC12CCN(C[C@H](O)c1ccccc1)CC2 [Example 33, 2-(4-Cyclopropyl-phenyl)-8-((R)-2-hydroxy-2-phenyl-ethyl)-2,8-diaza-spiro[4.5]decan-1-one] | 40 nM
C[C@@H](Oc1ccc(N2CCC3(CCN(CC(O)c4c(F)cccc4Cl)CC3)C2=O)cn1)C(F)(F)F (stereo partly drawn) [Example 49, 8-[2-(2-Chloro-6-fluoro-phenyl)-2-hydroxy-ethyl]-2-[6-((R)-2,2,2-trifluoro-1-methyl-ethoxy)-pyridin-3-yl]-2,8-diaza-spiro[4.5]decan-1-one] | 42 nM
O=C1N(c2ccc(C3CC3)cc2)CCC12CCN(C[C@H](O)c1ccc(F)cc1)CC2 [Example 35, 2-(4-Cyclopropyl-phenyl)-8-[(R)-2-(4-fluoro-phenyl)-2-hydroxy-ethyl]-2,8-diaza-spiro[4.5]decan-1-one] | 20 nM
CCCCNC(=O)CN1CCC2(CC1)CCN(c1ccc(C3CC3)cc1)C2=O [Example 11, N-Butyl-2-[2-(4-cyclopropyl-phenyl)-1-oxo-2,8-diaza-spiro[4.5]dec-8-yl]-acetamide] | 90 nM
O=C1N(c2ccc(C3CC3)cc2)CCC12CCN(C[C@@H](O)c1ccccc1)CC2 [Example 32, 2-(4-Cyclopropyl-phenyl)-8-((S)-2-hydroxy-2-phenyl-ethyl)-2,8-diaza-spiro[4.5]decan-1-one] | 90 nM
CCCCNC(=O)C(CCCC)N1CCC2(CCN(c3ccc(C4CC4)cc3)C2=O)CC1 (centres unmarked) [Example 30, 2-[2-(4-Cyclopropyl-phenyl)-1-oxo-2,8-diaza-spiro[4.5]dec-8-yl]-hexanoic acid butylamide] | 20 nM
CC(C(=O)Nc1ccc(F)cc1)N1CCC2(CCN(c3ccc(C4CC4)cc3)C2=O)CC1 (centres unmarked) [Example 25, 2-[2-(4-Cyclopropyl-phenyl)-1-oxo-2,8-diaza-spiro[4.5]dec-8-yl]-N-(4-fluoro-phenyl)-propionamide] | 40 nM
CCNC(=O)CN1CCC2(CC1)CCN(c1ccc(C3CC3)cc1)C2=O [Example 9, 2-[2-(4-Cyclopropyl-phenyl)-1-oxo-2,8-diaza-spiro[4.5]dec-8-yl]-N-ethyl-acetamide] | 610 nM
